We go through ten compounds from US20210348204A1, “Systems, Methods, And Compositions For The Production of Water-Soluble Terpenes Derived From Cannabis Plants” (Trait Biosciences, Inc., priority 2018, published 2021).

Data set [1] has as its system cannabinoid receptor. Conditions: cited from earlier work.
In data set [2] the test system is onychomycosis. Conditions: comparable to ciclopiroxolamine and sulcanazole; cited from earlier work.
Data set [3] relates to platelet aggregation. Conditions: cited from earlier work.
For data set [4] the following is noted: in vivo; cited from earlier work.
Data set [5] concerns breast cancer cells. To be noted: cited from earlier work.
Data set [6] has as its system Dermatophytes. Conditions: cited from earlier work.
In data set [7] the test system is acne bacteria. To be noted: cited from earlier work.
Data set [8] deals with T1, 5-HTEA (Mus musculus, UniProt Q64264).
T1 sequence (Q64264 1-421): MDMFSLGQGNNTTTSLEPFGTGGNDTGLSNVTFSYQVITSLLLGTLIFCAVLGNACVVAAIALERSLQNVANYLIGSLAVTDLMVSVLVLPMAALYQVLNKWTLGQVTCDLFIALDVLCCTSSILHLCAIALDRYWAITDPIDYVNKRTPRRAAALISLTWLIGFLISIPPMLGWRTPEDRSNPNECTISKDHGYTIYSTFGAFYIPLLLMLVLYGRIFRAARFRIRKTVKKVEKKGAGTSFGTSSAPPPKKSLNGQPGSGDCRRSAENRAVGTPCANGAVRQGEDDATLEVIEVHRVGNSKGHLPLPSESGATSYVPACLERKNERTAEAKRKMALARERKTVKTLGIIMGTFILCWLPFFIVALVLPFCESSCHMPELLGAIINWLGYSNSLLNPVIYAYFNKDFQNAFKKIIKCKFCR
To be noted: via 5-HTEA; cited from earlier work.

The conditions of data set [9]: via inhalation; cited from earlier work.
The test system of data set [10] is glutamate. To be noted: in vivo; cited from earlier work.
Data set [11] addresses adenosine Aza (Mus musculus, UniProt Q60613). Conditions: via adenosine Aza; cited from earlier work.
For data set [12] the following is noted: on inhalation in mice; cited from earlier work.
For data set [13] the following is noted: in vivo; cited from earlier work. This is another data set of the same source.
Data set [14] relates to Leishmania. Conditions: cited from earlier work.
Data set [15] relates to Pichia pastoris yeast cells. The data set is described as follows: Yeast cell growth after feeding transgenic Pichia cultures with individual terpenes. To be noted: terpene 100 μg/mL final concentration, cultures harvested 2 days post-feeding.
For data set [16], the system named is PGE-3. Conditions: via PGE-3; cited from earlier work.
Data set [17] addresses Acetylcholinesterase (Homo sapiens, UniProt P22303). To be noted: aiding memory; cited from earlier work.
The conditions of data set [18]: in humans; cited from earlier work.
Data set [19] deals with malaria. Conditions: cited from earlier work.
The conditions of data set [20]: in vivo; cited from earlier work. This is another data set of the same source.
Data set [21] addresses CB2 (Homo sapiens, UniProt P34972). To be noted: cited from earlier work.
Data set [22] has as its system PGE-1. To be noted: via PGE-1, comparable phenylbutazone; cited from earlier work.
For data set [23] the following is noted: in vivo; cited from earlier work. The source holds these as a separate data set.
Data set [24] has as its system PGE-2. To be noted: via PGE-2; cited from earlier work.
The conditions of data set [25]: antagonized by naloxone; cited from earlier work.

CB2, sequence (P34972 whole entry): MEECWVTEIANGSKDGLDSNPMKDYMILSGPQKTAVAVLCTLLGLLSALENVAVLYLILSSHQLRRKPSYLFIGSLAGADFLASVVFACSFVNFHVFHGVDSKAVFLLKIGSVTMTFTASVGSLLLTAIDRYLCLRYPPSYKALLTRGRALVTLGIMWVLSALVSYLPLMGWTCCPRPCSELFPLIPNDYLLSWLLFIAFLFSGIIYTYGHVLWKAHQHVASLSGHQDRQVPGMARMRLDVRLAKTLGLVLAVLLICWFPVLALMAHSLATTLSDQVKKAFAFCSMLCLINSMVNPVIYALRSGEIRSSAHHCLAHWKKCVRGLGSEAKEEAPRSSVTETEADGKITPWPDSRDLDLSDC
Acetylcholinesterase, sequence (P22303 32-614): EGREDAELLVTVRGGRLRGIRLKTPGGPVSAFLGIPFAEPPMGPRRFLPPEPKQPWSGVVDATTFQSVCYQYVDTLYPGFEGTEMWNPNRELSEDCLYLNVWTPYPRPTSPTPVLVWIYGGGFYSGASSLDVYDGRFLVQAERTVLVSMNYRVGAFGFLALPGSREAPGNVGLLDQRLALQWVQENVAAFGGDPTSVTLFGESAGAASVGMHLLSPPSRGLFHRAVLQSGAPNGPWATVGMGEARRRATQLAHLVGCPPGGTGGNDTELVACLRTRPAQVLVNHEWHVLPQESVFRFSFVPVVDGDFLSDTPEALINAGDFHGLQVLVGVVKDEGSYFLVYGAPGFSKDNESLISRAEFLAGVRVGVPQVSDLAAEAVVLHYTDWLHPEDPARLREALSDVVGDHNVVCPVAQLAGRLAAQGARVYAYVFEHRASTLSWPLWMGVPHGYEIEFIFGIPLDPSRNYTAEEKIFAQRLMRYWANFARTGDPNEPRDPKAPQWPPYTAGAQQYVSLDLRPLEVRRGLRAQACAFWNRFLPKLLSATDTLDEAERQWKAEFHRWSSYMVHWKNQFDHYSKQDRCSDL
adenosine Aza, sequence (Q60613 whole entry): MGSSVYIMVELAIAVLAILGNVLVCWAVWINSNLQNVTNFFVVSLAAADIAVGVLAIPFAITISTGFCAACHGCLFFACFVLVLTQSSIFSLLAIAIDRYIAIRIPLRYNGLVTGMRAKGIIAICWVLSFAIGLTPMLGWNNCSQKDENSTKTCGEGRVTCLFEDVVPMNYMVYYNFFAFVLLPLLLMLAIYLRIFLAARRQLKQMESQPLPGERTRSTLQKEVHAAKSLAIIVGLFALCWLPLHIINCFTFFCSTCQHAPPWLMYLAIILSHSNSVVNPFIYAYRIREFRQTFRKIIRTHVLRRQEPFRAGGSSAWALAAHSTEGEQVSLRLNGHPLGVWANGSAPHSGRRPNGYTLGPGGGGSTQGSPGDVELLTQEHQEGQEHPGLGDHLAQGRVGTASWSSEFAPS

Regarding `C=C(C)[C@@H]1CCC(C)=C[C@H]1c1c(O)cc(CCCCC)cc1O` [CBD, cannabidiol], the “Affinity for the cannabinoid receptor (in words)” value in data set [1] is listed as “do not have significant affinity”.

In the case of `C=C1CC[C@H]2O[C@]2(C)CC[C@@H]2[C@@H]1CC2(C)C` [Caryophyllene Oxide], the “Antifungal activity in onychomycosis” value in data set [2] is “Antifungal in onychomycosis comparable to ciclopiroxolamine and sulcanazole”. For the same compound, in data set [3], the “Effect on platelet aggregation” value was “Decreases platelet aggregation”.

For `C=C(C)[C@H]1CC=C(C)CC1` [Limonene], the “Activity in gastro-aesophageal reflux” value in data set [4] was “Gastro-aesophageal reflux (Harris, 2010)”. Moreover, the “Apoptosis of breast cancer cells” value in data set [5] is reported as “Apoptosis of breast cancer cells (Vigushin”. In addition, the Activity against dermatophytes result in [6] is “Dermatophytes (Sanguinetti et al., 2007;”. In data set [7], the “Activity against acne bacteria” value is listed as “Active against acne bacteria (Kim et al., 2008)”. Also, the Anxiolytic activity result in data set [8] was “Anxielytic”. Besides, the AD/immunostimulant activity result in data set [9] is listed as “Potent AD/immunostimulant via inhalation”.

For `C=CC(C)(O)CCC=C(C)C` (stereo not drawn) [Linalool], the Anticonvulsant/anti-glutamate activity entry in data set [10] is “Anticonvulsant/anti-glutamate (Elisabetsky”. Further, the Analgesic activity entry in data set [11] was “Analgesic via adenosine Aza (Peana et al.,”. Moreover, the Sedative activity result in [12] is recorded as “Sedative on inhalation in mice”. The Anti-anxiety activity result in data set [13] is “Anti-anxiety”. Besides, in data set [14], the Anti-leishmanial activity result is recorded as “Potent anti-leshmarial (do Socorro et al.,”.

On to `CC(C)=CCC[C@](C)(O)[C@@H]1CC=C(C)CC1` [alpha-bisabolol], for which the “Effect on yeast cell growth rates” value in [15] is on record as “no observed negative effect”.

As to `CC(C)=CCCC(C)CCO` (stereo not drawn) [citronellol], the “Effect on yeast cell growth rates” value in data set [15] is on record as “no observed negative effect”.

Consider `CC(C)=CCC/C(C)=C\CO` [nerol], for which, in [15], the “Effect on yeast cell growth rates” value is “no observed negative effect”.

As to `CC1=CCC2CC1C2(C)C` (stereo not drawn) [α-Pinene], the Anti-inflammatory activity entry in data set [16] is “Anti-inflammatory via PGE-3”. For the same compound, the Acetylcholinesterase inhibition result in data set [17] is “Acetylcholinesterase inhibitor, aiding memory”. Besides, in data set [18], the Bronchodilatory activity entry is on record as “Bronchodilatory in humans”.

Consider `C=C1CC/C=C(\C)CC[C@@H]2[C@@H]1CC2(C)C` [β-Caryophyllene], for which the Anti-malarial activity entry in data set [19] is listed as “Anti-malarial”. Also, the Gastric cytoprotective activity result in data set [20] was “Gastric cytoprotective”. In data set [21], the “Selective CB2 agonist (concentration given)” value is reported as 100 nM. In addition, the “A1 (anti-inflammatory) activity” value in data set [22] is on record as “A1 via PGE-1 comparable phenylbutazone”.

Consider `C=CC(=C)CCC=C(C)C` [β-Myrcene], for which the “Sedating, muscle relaxant, hypnotic activity” value in data set [23] was “Sedating, muscle relaxant, hypnotic (da Vale”. The Blocking of inflammation entry in data set [24] is reported as “Blocks inflammation via PGE-2”. The Analgesic activity entry in data set [25] was “Analgesic, antagonized by naloxone”.
